Marks after values point to notes of the source that are not given here.
How the values were obtained:
[1] = In vivo piglet test: growth performance (weight gain, feed consumption) D0 to D42 post-weaning; parameters: species or system piglets (Danbred×Duroc); details: for Daily weight gain: Overall period D0 to D42
Experimental: The effect of the premix of the invention on the performance and health of piglets in the post-weaning pre-starter stage (0-14 days post-weaning) was evaluated and compared to a standard oxide.
The use of the product of the invention ZnO—MgO was compared with standard zinc oxide at nutritional dose as well as at pharmacological dose in the contents indicated in Table 3.
Piglet weight was measured from D0 to D42 post-weaning in order to record daily weight gain and total weight at the end of the test. Feed consumption of each animal was also recorded each day of the test and recorded as an average to assess the feed conversion ratio (FCR). The FCR corresponds to the conversion index CI. It is equal to the average daily consumption reported to the average daily weight gain. The mean values+/−the standard deviation are presented per treatment.

[2] = in vivo
Description: Each piglet is tagged, weighed and allocated in groups of 8 piglets per pen.
Analyses of the faeces after 14 days of use of the different treatments allowed to assess the amount of zinc not used by the animal and thus released into the soil, contributing to pollution.

Caco2 cells = details: Caco-2
[3] = Control Negative: ZnO 150 ppm additive (120 ppm zinc)
[4] = Control Positive: ZnO 3261 ppm additive (2620 ppm zinc)
[5] = Pre-starter phase D0 to D14, Control Negative: ZnO 150 ppm additive (120 ppm zinc)
[6] = Pre-starter phase D0 to D14, Control Positive: ZnO 3261 ppm additive (2620 ppm zinc)

Molecule	Live weight Day 0 [1, 3] [kg]	Live weight Day 14 [1, 3]	Live weight Day 42 [1, 3]	Live weight Day 0 [1, 4] [kg]	Live weight Day 14 [1, 4]	Live weight Day 42 [1, 4]	Daily weight gain [1, 3]	Daily weight gain [1, 4]	Average daily feed consumption [1, 5] [kg/day]	Average daily weight gain [1, 5]	Feed conversion ratio [1, 5]	Average daily feed consumption [1, 6] [kg/day]	Average daily weight gain [1, 6]	Feed conversion ratio [1, 6]	Average daily weight gain ([1]; Starter phase D15 to D42, Control Negative: ZnO 150 ppm additive (120 ppm zinc))	Average daily weight gain ([1]; Starter phase D15 to D42, Control Positive: ZnO 3261 ppm additive (2620 ppm zinc))	zinc content measured in the feces [2] [ppm]	Total Zn absorbed on cell (Caco2 cells) [mg/L]
[O]=[Zn] [Control, ZnO]	6.75	9.61^b kg	26.15^ab kg	6.74	10.01^ab kg	25.33^b kg	0.463^ab kg/day	0.444^b kg/day	0.380	0.205^b kg/day	1.863^a kg/kg	0.395	0.233^ab kg/day	1.705^b kg/kg	0.611^ab kg/day	0.571^b kg/day	925	–
ZnO—MgO [Premix of the invention MgO—ZnO]	–	–	–	–	–	–	–	–	–	–	–	–	–	–	–	–	–	1.89
